Literature values as cited in patent US5271935A, “Antibiotic, cammunocin, a process for the preparation thereof, and the use thereof as a pharmaceutical” (Hoechst Aktiengesellschaft, priority 1988, dated 1993).

System: Gram-positive bacteria
Conditions: other known antibiotics

amphomycin
requirement for calcium ions to show an antibiotic effect: 1.0 mM
